Measurements reported in PMC6963856, “Increases in Hydrophilicity and Charge on the Polar Face of Alyteserin 1c Helix Change its Selectivity towards Gram-Positive Bacteria” (Antibiotics, 2019).
Where no end group is shown, it is not given here.

Legend:
S. aureus ATCC25923 = assay type: cell-based, Staphylococcus aureus
Description: (§1) Antimicrobial assays were performed according to the Clinical and Laboratory Standards Institute, CLSI [45] with slight modifications. A bacterial culture in Mueller Hinton broth in exponential phase was diluted in Mueller Hinton broth until reaching an OD625 of 0.1 (approximately 1 × 10^8 CFU/mL). Then, this culture was diluted once more by a factor of 1:200. Subsequently, 90 µL of bacterial culture was incubated with 10 µL of peptide to reach a final inoculum of approximately 5 × 10^5 CFU/mL. The incubation time was 18–20 h in sterile 96-well plates at 37 °C. The peptides were applied at different serial dilutions (diluted in half) from 250 μM to 0.97 μM. As a negative control, phosphate-buffered saline (PBS; 138 mM NaCl, 3 mM KCl, 1.5 mM NaH2PO4, 8.1 mM Na2HPO4, pH 7.4) was used. After incubation, bacterial growth was visualized to obtain the minimum inhibitory concentration (MIC).

[1] = test system: S. aureus ATCC29213 (MSSA, ampicillin-resistant); assay type: cell-based, Staphylococcus aureus
Description: as §1

[2] = test system: S. aureus ATCC43300 (MRSA); assay type: cell-based, Staphylococcus aureus
Description: as §1

B. cereus ATCC11778 = assay type: cell-based
Description: as §1

[3] = test system: L. monocytogenes ATCCbaa751; assay type: cell-based
Description: as §1

S. typhimurium ATCC14028 = assay type: cell-based
Description: as §1

E. coli ATCC25922 = assay type: cell-based, Escherichia coli
Description: as §1

P. aeruginosa ATCC9027 = assay type: cell-based
Description: as §1

human erythrocytes = details: cited from earlier work
Description: A peptide of 23 amino acid residues with a net charge of +2, Alyerserin-1c (WT), was isolated for the first time from the cutaneous secretions of the Alytes obstetricans toad. […] Furthermore, the three-dimensional structure of Alyteserin-1c was characterized as an extended α-helix between Leu2 and Val21 residues. In a recent study by Aragón-Muriel et al., it was reported that the Alyteserin-1 ...

Substance | MIC S. aureus ATCC25923 (S. aureus ATCC25923) | MIC S. aureus ATCC29213 [1] | MIC S. aureus ATCC43300 [2] | MIC B. cereus ATCC11778 (B. cereus ATCC11778) | MIC L. monocytogenes ATCCbaa751 [3] | MIC S. typhimurium ATCC14028 (S. typhimurium ATCC14028) | MIC E. coli ATCC25922 (E. coli ATCC25922) | MIC P. aeruginosa ATCC9027 (P. aeruginosa ATCC9027) | HC50 human erythrocytes (human erythrocytes)
GLKRIFKSGLGKLVKGISAHVAS-NH2 [ΔM] | 62.5 µM | 250 µM | 250 µM | 125 µM | 62.5 µM | 125 µM | 62.5 µM | – | –
GLKEIFKAGLGSLVKGIAAHVAS-NH2 [WT, Alyteserin-1c, reference compound] | 250 µM | – | – | – | 125 µM | – | 15.2 µM | 31.3 µM | 220 µM
